Results: article PMC6199744, “Development of Chemical Proteomics for the Folateome and Analysis of the Kinetoplastid Folateome” (ACS Infectious Diseases, 2018)
Where two headings read alike, the source gives them in different places.

What was measured:
Format in all cases: binding
[1] = target: T1, HeLa cell extract proteins (Homo sapiens, UniProt O60313)
T1 construct: endogenous in cells; host or cells: HeLa cell extract
T1 sequence (O60313 88-960): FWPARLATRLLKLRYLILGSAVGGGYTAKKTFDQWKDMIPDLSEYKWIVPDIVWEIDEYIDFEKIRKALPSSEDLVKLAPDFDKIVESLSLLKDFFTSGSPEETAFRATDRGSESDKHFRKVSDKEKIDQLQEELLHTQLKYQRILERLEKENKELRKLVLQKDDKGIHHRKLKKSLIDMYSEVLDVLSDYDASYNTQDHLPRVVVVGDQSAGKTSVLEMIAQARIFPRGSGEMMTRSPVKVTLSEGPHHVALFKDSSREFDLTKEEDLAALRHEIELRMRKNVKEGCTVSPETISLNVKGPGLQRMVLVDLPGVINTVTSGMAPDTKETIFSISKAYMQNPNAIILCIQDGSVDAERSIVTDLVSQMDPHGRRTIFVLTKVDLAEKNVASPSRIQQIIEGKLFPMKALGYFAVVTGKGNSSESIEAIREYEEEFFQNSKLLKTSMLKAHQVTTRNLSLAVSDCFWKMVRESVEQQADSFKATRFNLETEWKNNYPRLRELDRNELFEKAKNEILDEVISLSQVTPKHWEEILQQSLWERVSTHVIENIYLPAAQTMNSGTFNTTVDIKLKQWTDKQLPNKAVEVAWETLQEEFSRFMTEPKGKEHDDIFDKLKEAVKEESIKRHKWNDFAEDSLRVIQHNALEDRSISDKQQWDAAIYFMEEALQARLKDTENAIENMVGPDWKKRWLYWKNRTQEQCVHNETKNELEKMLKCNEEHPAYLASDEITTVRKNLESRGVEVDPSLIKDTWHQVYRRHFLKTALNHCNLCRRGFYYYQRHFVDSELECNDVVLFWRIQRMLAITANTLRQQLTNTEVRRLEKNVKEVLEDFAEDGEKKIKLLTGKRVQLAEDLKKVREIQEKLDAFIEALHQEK

[2] = target: T2, HeLa cell extract proteins (Homo sapiens, UniProt Q9Y679)
T2 construct: endogenous in cells; host or cells: HeLa cell extract
T2 sequence (Q9Y679 1-410): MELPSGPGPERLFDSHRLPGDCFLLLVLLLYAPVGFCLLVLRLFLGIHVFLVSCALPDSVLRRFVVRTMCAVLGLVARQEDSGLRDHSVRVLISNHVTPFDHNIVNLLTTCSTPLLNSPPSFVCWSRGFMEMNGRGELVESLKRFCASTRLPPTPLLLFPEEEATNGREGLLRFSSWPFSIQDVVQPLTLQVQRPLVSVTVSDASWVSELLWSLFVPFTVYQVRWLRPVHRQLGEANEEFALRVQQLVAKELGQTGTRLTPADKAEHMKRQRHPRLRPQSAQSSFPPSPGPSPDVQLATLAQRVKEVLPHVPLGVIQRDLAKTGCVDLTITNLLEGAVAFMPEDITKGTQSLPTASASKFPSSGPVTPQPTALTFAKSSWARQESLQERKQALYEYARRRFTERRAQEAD

[3] = target: T3, HeLa cell extract proteins (Homo sapiens, UniProt Q9Y230)
T3 construct: endogenous in cells; host or cells: HeLa cell extract

[4] = target: T4, HeLa cell extract proteins (Homo sapiens, UniProt P23528)
T4 construct: endogenous in cells; host or cells: HeLa cell extract

[5] = target: T5, HeLa cell extract proteins (Homo sapiens, UniProt Q9NR28)
T5 construct: endogenous in cells; host or cells: HeLa cell extract
T5 sequence (Q9NR28 22-239): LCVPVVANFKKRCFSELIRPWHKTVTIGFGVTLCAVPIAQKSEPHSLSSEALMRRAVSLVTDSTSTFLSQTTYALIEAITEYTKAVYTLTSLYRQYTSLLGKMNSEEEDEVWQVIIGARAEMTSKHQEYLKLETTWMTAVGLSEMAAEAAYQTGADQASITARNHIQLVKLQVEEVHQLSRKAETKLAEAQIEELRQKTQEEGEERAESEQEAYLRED

[6] = target: T6, HeLa cell extract proteins (Homo sapiens, UniProt P37837)
T6 construct: endogenous in cells; host or cells: HeLa cell extract
T6 sequence (P37837 1-337): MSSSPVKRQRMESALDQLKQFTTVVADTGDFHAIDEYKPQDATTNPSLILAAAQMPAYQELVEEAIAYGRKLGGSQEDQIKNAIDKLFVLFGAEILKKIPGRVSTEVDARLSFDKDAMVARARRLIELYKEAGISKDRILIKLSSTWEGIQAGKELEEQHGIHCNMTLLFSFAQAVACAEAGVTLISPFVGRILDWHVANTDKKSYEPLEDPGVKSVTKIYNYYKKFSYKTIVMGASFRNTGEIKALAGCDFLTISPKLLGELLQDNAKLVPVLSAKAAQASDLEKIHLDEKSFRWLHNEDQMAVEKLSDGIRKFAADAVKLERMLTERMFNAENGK

[7] = target: T7, HeLa cell extract proteins (Homo sapiens, UniProt Q99436)
T7 construct: endogenous in cells; host or cells: HeLa cell extract
T7 sequence (Q99436 44-277): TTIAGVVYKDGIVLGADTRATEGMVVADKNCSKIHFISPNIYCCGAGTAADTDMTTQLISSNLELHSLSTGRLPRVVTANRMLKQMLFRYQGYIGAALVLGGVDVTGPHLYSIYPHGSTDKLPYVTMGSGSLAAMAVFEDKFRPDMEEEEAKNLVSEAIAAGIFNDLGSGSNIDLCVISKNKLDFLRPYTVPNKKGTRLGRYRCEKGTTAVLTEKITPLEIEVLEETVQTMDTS

[8] = target: T8, HeLa cell extract proteins (Homo sapiens, UniProt P17844)
T8 construct: endogenous in cells; host or cells: HeLa cell extract

[9] = target: T9, HeLa cell extract proteins (Homo sapiens, UniProt P31689)
T9 construct: endogenous in cells; host or cells: HeLa cell extract

[10] = target: T10, HeLa cell extract proteins (Homo sapiens, UniProt O15397)
T10 construct: endogenous in cells; host or cells: HeLa cell extract

[11] = target: T11, HeLa cell extract proteins (Homo sapiens, UniProt Q9UI30)
T11 construct: endogenous in cells; host or cells: HeLa cell extract
T11 sequence (Q9UI30 1-125): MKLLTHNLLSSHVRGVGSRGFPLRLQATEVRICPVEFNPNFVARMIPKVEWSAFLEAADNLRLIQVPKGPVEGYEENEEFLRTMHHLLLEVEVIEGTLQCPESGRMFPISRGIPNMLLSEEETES

[12] = HeLa, protein DIABLO (DIABLO HOMOLOG, MIT[…])
[13] = HeLa, protein PSMB7 ([…] BETA TYPE 7 PRECURSOR)
[14] = HeLa, protein DDX5 (PROBABLE ATP-DEPENDENT RNA HELICASE DDX5)
[15] = HeLa, protein CFL1 (COFILIN-1.)
[16] = HeLa, protein TALDO1 (TRANSALDOLASE.)

T8 sequence (P17844 whole entry): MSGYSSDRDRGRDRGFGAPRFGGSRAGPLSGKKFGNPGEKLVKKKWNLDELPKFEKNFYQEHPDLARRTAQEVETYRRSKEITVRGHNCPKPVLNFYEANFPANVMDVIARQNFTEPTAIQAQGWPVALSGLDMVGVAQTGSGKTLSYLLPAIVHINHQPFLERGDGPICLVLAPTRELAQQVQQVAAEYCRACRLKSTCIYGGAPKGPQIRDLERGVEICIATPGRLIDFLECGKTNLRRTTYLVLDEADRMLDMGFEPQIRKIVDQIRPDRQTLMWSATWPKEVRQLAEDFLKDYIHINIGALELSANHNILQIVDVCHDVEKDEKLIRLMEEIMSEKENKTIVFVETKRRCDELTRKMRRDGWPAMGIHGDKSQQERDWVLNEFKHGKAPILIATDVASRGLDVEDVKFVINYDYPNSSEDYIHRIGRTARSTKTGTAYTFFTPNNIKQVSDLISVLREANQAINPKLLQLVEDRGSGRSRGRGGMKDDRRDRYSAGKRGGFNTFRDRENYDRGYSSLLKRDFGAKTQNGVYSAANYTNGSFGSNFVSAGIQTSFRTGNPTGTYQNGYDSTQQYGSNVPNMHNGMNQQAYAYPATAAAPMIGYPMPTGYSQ
T3 sequence (Q9Y230 whole entry): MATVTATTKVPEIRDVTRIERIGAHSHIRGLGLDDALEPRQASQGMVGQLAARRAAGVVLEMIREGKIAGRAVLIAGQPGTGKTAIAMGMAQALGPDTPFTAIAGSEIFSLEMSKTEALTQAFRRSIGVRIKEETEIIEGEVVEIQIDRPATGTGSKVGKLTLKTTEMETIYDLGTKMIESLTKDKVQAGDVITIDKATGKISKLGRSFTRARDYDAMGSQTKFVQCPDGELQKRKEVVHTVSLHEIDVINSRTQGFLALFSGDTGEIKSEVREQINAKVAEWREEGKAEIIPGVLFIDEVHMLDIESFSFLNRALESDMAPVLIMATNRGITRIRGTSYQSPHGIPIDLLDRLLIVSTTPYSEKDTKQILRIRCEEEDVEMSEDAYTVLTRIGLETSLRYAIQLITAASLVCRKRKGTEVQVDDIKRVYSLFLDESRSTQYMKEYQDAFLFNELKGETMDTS
T9 sequence (P31689 whole entry): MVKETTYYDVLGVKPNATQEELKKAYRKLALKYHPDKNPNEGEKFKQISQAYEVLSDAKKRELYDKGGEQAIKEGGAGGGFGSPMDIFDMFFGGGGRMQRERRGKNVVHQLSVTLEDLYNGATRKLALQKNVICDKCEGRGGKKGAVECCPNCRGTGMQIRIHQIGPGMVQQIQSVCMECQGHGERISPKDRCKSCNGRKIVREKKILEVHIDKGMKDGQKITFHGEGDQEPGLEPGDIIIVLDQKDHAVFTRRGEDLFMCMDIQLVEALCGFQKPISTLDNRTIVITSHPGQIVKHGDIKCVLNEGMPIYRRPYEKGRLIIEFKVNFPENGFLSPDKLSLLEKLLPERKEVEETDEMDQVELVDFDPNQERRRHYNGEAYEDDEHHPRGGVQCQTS
T10 sequence (O15397 whole entry): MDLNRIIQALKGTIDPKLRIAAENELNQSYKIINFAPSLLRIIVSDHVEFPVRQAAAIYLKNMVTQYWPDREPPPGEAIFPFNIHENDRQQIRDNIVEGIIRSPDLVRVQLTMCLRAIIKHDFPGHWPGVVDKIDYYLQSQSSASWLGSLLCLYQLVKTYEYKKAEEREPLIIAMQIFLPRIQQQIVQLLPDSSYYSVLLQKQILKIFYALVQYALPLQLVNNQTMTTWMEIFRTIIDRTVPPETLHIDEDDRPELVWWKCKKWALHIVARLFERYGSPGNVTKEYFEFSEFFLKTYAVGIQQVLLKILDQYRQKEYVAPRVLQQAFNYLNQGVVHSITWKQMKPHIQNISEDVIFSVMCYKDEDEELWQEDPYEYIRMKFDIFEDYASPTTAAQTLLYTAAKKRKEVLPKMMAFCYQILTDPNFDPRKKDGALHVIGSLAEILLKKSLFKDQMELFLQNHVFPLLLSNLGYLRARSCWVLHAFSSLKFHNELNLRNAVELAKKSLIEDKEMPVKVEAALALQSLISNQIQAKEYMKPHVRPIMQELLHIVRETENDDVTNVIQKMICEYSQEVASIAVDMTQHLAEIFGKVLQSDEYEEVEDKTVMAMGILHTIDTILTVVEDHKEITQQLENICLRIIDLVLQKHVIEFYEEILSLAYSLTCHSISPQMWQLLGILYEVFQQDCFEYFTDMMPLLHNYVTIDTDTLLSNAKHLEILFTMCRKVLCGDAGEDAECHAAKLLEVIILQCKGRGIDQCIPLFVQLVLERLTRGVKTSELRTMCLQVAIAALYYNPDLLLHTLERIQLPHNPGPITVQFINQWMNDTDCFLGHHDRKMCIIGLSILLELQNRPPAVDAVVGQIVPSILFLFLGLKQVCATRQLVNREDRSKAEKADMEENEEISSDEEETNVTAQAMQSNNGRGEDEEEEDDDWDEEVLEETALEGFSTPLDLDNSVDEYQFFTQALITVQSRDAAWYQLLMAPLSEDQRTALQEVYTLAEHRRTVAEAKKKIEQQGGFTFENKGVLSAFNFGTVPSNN
T4 sequence (P23528 whole entry): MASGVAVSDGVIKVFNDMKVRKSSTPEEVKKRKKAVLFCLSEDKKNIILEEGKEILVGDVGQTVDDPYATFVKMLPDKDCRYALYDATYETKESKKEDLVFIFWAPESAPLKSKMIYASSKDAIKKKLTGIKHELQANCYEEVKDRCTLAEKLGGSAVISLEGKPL

SMILES: Nc1nc2c(c(=O)[nH]1)N(C=O)C(CNc1ccc(C(=O)N[C@@H](CCC(=O)O)C(=O)O)cc1)CN2 (some centres unmarked) [LEU, leucovorin]
- fold changes relative to vehicle control ([1]; HeLa, protein OPA1): 0.88
- fold changes relative to vehicle control ([2]; HeLa, protein AUP1): 0.83
- fold changes relative to vehicle control ([3]; protein RUVBL2, HeLa): 0.85
- fold changes relative to vehicle control ([4]; protein CFL1, HeLa): 0.76
- fold changes relative to vehicle control [5, 12]: 1.06
- fold changes relative to vehicle control ([6]; protein TALDO1, HeLa): 0.88
- fold changes relative to vehicle control [7, 13]: 1.19
- fold changes relative to vehicle control [8, 14]: 0.88
- fold changes relative to vehicle control ([9]; HeLa, protein DNAJA1): 0.99
- fold changes relative to vehicle control ([10]; protein IPO8, HeLa): 0.86
- fold changes relative to vehicle control ([11]; HeLa, protein HSPC152): 1.17

SMILES: Nc1nc2[nH]cc(CCc3ccc(C(=O)N[C@@H](CCC(=O)O)C(=O)O)cc3)c2c(=O)[nH]1 [PTX, pemetrexed]
- fold changes relative to vehicle control [1]: 0.84
- fold changes relative to vehicle control [2]: 0.89
- fold changes relative to vehicle control [3]: 0.87
- fold changes relative to vehicle control [4]: 0.79
- fold changes relative to vehicle control [5]: 1.01
- fold changes relative to vehicle control [6]: 1.04
- fold changes relative to vehicle control [7]: 1.6
- fold changes relative to vehicle control [8]: 0.82
- fold changes relative to vehicle control [9]: 0.93
- fold changes relative to vehicle control [10]: 0.83
- fold changes relative to vehicle control [11]: 1.21

SMILES: CCCCCCOc1ccc(Cc2cnc(N)nc2N)cc1 [compound 1]
- fold changes relative to vehicle control ([1]; HeLa, protein OPA1): 0.82
- fold changes relative to vehicle control ([2]; captured protein AUP1, HeLa): 0.98
- fold changes relative to vehicle control ([3]; protein RUVBL2, HeLa): 1.03
- fold changes relative to vehicle control [4, 15]: 1.27 fold
- fold changes relative to vehicle control ([5]; captured protein DIABLO, HeLa): 1.09
- fold changes relative to vehicle control [6, 16]: 1.32 fold
- fold changes relative to vehicle control ([7]; protein PSMB7, HeLa): 1.17
- fold changes relative to vehicle control ([8]; HeLa, protein DDX5): 0.92
- fold changes relative to vehicle control ([9]; HeLa, protein DNAJA1): 1.07
- fold changes relative to vehicle control ([10]; captured protein IPO8, HeLa): 0.55
- fold changes relative to vehicle control ([11]; HeLa, protein HSPC152): 0.96

SMILES: CCCCCCOc1cccc(Cc2cnc(N)nc2N)c1 [compound 2]
- fold changes relative to vehicle control ([1]; HeLa, protein OPA1): 1.02
- fold changes relative to vehicle control ([2]; captured protein AUP1, HeLa): 1.25
- fold changes relative to vehicle control ([3]; protein RUVBL2, HeLa): 1.34
- fold changes relative to vehicle control [4, 15]: 2.02 fold
- fold changes relative to vehicle control ([5]; captured protein DIABLO, HeLa): 0.97
- fold changes relative to vehicle control [6, 16]: 2.2 fold
- fold changes relative to vehicle control ([7]; protein PSMB7, HeLa): 1.28
- fold changes relative to vehicle control ([8]; HeLa, protein DDX5): 1.12
- fold changes relative to vehicle control ([9]; HeLa, protein DNAJA1): 1.11
- fold changes relative to vehicle control ([10]; captured protein IPO8, HeLa): 0.8
- fold changes relative to vehicle control ([11]; HeLa, protein HSPC152): 1.18

SMILES: Nc1nc2cccc(-c3ccccc3)c2n1Cc1ccc(Cl)c(Cl)c1 [compound 3]
- fold changes relative to vehicle control ([1]; HeLa, protein OPA1): 1.01
- fold changes relative to vehicle control ([2]; captured protein AUP1, HeLa): 0.9
- fold changes relative to vehicle control ([3]; protein RUVBL2, HeLa): 1.02
- fold changes relative to vehicle control [4, 15]: 0.82 fold
- fold changes relative to vehicle control ([5]; captured protein DIABLO, HeLa): 1.01
- fold changes relative to vehicle control [6, 16]: 0.83 fold
- fold changes relative to vehicle control ([7]; protein PSMB7, HeLa): 0.99
- fold changes relative to vehicle control ([8]; HeLa, protein DDX5): 0.9
- fold changes relative to vehicle control ([9]; HeLa, protein DNAJA1): 0.92
- fold changes relative to vehicle control ([10]; captured protein IPO8, HeLa): 0.6
- fold changes relative to vehicle control ([11]; HeLa, protein HSPC152): 1.04

SMILES: NCCOCCOCC(=O)Nc1nc2ncc(CNc3ccc(C(=O)NC(CCC(=O)O)C(=O)O)cc3)nc2c(=O)[nH]1 (centres unmarked) [compound 6]
- fold changes relative to vehicle control ([1]; HeLa, protein OPA1): 0.87
- fold changes relative to vehicle control ([2]; HeLa, protein AUP1): 0.92
- fold changes relative to vehicle control ([3]; protein RUVBL2, HeLa): 1.06
- fold changes relative to vehicle control ([4]; protein CFL1, HeLa): 0.89
- fold changes relative to vehicle control ([5]; HeLa, protein DIABLO (DIABLO HOMOLOG, MITOCHONDRIAL PRECURSOR)): 0.99
- fold changes relative to vehicle control ([6]; protein TALDO1, HeLa): 1.22
- fold changes relative to vehicle control [7, 13]: 2.16
- fold changes relative to vehicle control [8, 14]: 1.15
- fold changes relative to vehicle control ([9]; HeLa, protein DNAJA1): 1.06
- fold changes relative to vehicle control ([10]; protein IPO8, HeLa): 0.91
- fold changes relative to vehicle control ([11]; HeLa, protein HSPC152): 1.36

SMILES: NCCCNc1ccc(C(=O)NC(CCC(=O)O)C(=O)O)cc1 (centres unmarked) [compound 7]
- fold changes relative to vehicle control ([1]; HeLa, protein OPA1): 0.94
- fold changes relative to vehicle control ([2]; HeLa, protein AUP1): 0.9
- fold changes relative to vehicle control ([3]; protein RUVBL2, HeLa): 0.95
- fold changes relative to vehicle control ([4]; protein CFL1, HeLa): 0.69
- fold changes relative to vehicle control [5, 12]: 1.05
- fold changes relative to vehicle control ([6]; protein TALDO1, HeLa): 0.92
- fold changes relative to vehicle control [7, 13]: 1.08
- fold changes relative to vehicle control [8, 14]: 0.93
- fold changes relative to vehicle control ([9]; HeLa, protein DNAJA1): 1.15
- fold changes relative to vehicle control ([10]; protein IPO8, HeLa): 0.82
- fold changes relative to vehicle control ([11]; HeLa, protein HSPC152): 1.29
